Data on 14 molecules can be found in patent publication US6989401B2, “Sulfonic acid derivatives of hydroxamic acids and their use as medicinal products” (Mitsubishi Pharma Corporation, priority 2000, dated 2006).

For assay [1], the system named is LPS in rat peritonitis (CLP; cecal ligation and puncture) model. Description: Inhibitory effect on LPS that increases in rat peritonitis (CLP) model. Format: in vivo. Particulars: iv, continuous tail vein infusion 2.5 mg/kg/hr. As to the method: Rat peritonitis (CLP; cecal ligation and puncture) model was prepared according to the method of Wichterman et al. (J. Surg. Res. 29, 189-201 <1980>). That is, a rat fasted overnight was anesthetized with ether, and a midline laparotomy was performed and the cecum was exposed. The cecum was ligated with a 3-0 silk thread at its base and perforated two times with an 18 G injection needle. The cecum was gently squeezed to extrude feces, which were spread around the abdomen, and the sectioned part was sutured. The animal was fixed in a Borrmann cage, and physiological saline or drug solution ([…]) was continuously given from the tail vein at an administration rate of 2.5 mg/kg/hr with an infusion pump (22 M, Harvard, 5 mL/kg/hr as a dose).
After 6 hr of the CLP treatment, the animal was sacrificed with carbonic acid gas. The abdominal cavity was washed by injecting phosphate buffered saline (PBS; 37° C., 10 mL) and the abdominal cavity washing containing ascites (PLF; peritoneal lavage fluid) was recovered. The recovery weight of the obtained PLF was measured, and PLF was centrifuged (1500 rpm for 5 min, 4° C.) to recover supernatant. The blood taken from the heart was centrifuged (3000 rpm for 10 min, 4° C.) using a serum separation tube, and the serum was recovered. The concentration of LPS in the abdominal cavity and serum was measured using Toxinometer MT-285 (Waco Pure Chemical Industries) preheated to 37° C., after diluting the supernatant and serum of the recovered PLF 10^5-fold and 10^2-fold, respectively, with sterile distilled water, and adding 200 μL thereof to a limulus reagent (LAL ES, Waco Pure Chemical Industries). The amount of LPS per abdominal cavity was calculated from amount of recovered abdominal cavity washing (PLF)×LPS concentration of PLF.
The LPS inhibitory ratio of the compound was calculated as the ratio of LPS concentration of the compound administration group to LPS concentration of the physiological saline administration group.

Assay [2] concerns LPS in E. coli culture supernatant (E. coli NIHJ JC-2 strain). Description: Inhibitory effect on LPS in E. coli culture supernatant. Format: cell-based. Particulars: 24 hr; for inhibitory effect of compound on LPS in E. coli culture supernatant, relative ratio: relative ratio to the inhibitory ratio of the compound of Example 1 as 1.0, compound 100 μM. The protocol: One platinum loop of E. coli NIHJ JC-2 strain was inoculated into a test tube containing heart infusion broth (HIB, 5 mL) and cultured for about 24 hr. The bacterial culture broth was washed three times by centrifugation (3000 rpm, 15 min, 20° C., TOMY Seiko, RL-131) using 10 mL of fresh HIB medium for one cycle of washing. The washed bacteria were prepared to an about 10^7 colony forming unit (CFU)/mL with a fresh HIB medium, and 0.2 mL of the prepared bacterial suspension was inoculated into an Erlenmeyer flask containing a fresh HIB medium (18.8 mL) (i.e., to final bacterial concentration of about 10^5 CFU/mL). A solution (1 mL) of each compound prepared to a concentration of 2 mM (final concentration of compound 100 μM) was added to the culture broth containing the bacteria. Using a shaker (RGR-1 type, manufactured by IWASHIYA, Ltd.), shake culture was conducted at 37° C., and 2 mL of culture broth after 24 hr was sampled. The sampled culture broth was filtered (DISMIC, 0.45 μm, Advantech Toyo) and diluted 10^5-fold with sterile distilled water. The resulting suspension (200 μL) was added to a limulus reagent (LAL ES, Wako Pure Chemical Industries) and LPS concentration was measured using Toxinometer MT-285 (Wako Pure Chemical Industries) preheated to 37° C.
The LPS inhibitory ratio of the compound was calculated as a ratio of the LPS concentration of the compound addition group relative to the LPS concentration of the compound non-addition group. […] The inhibitory ratio of each compound is shown in the following in Table 1 as a relative ratio to the inhibitory ratio of the compound of Example 1 as 1.0.

Where [3] appears, read: peritoneal lavage fluid 6 hr after CLP, read-out: LPS inhibitory ratio (%) in abdominal cavity.
The mark [4] stands for this setting: serum 6 hr after CLP, read-out: LPS inhibitory ratio (%) in blood.

Molecules are shown by their SMILES. Read-outs that look alike come from different tables or passages of the source.

For `CNC(=O)[C@H](Cc1ccc(OCCCS(=O)(=O)[O-])cc1)NC(=O)[C@H](CC(C)C)C(CN1C(=O)c2ccccc2C1=O)C(=O)NO.[Na+]` (single isomer, unassigned) [Example 1, 5-methyl-3(R)-{1(S)-methylcarbamoyl-2-[4-(3-sulfopropoxy)phenyl]ethylcarbamoyl}-2(R or S)-phthalimidomethylhexanohydroxamic acid sodium salt], the inhibition in vivo at 2.5 mg/kg/h in assay [1] (setting [3]) is 88.3%; in assay [1] (setting [4]) it was 79.9%. The LPS inhibitory ratio in assay [2] (final concentration of compound 100 μM, shake culture 37° C., limulus reagent) is reported as 46.5-65.8%. For the same molecule, the “inhibitory effect of compound on LPS in E. coli culture supernatant, relative ratio” value (“inhibitory effect of compound … relative ratio” below) in assay [2] (sodium salt) was found to be 1.0.

On to `CNC(=O)[C@@H](Cc1ccc(OCCCS(=O)(=O)[O-])cc1)NC(=O)[C@H](CC(C)C)C(CN1C(=O)c2ccccc2C1=O)C(=O)NO.[Na+]` (single isomer, unassigned) [Example 3, 5-methyl-3(R)-{1(R)-methylcarbamoyl-2-[4-(3-sulfopropoxy)phenyl]ethylcarbamoyl}-2(R or S)-phthalimidomethylhexanohydroxamic acid sodium salt], for which the “inhibitory effect of compound … relative ratio” value in assay [2] (sodium salt) was determined as 0.70.

`CNC(=O)[C@H](Cc1ccc(OCCCS(=O)(=O)[O-])cc1)NC(=O)[C@H](CC(C)C)C(CN1C(=O)c2ccccc2C1=O)C(=O)NO.[Na+]` (single isomer, unassigned) [Example 4, 5-methyl-3(R)-{1(S)-methylcarbamoyl-2-[4-(3-sulfopropoxy)phenyl]ethylcarbamoyl}-2(R or S)-phthalimidomethylhexanohydroxamic acid sodium salt]: in assay [2] (sodium salt), the “inhibitory effect of compound … relative ratio” value is 0.69.

On to `CNC(=O)[C@@H](Cc1ccc(OCCCS(=O)(=O)[O-])cc1)NC(=O)[C@H](CC(C)C)C(CN1C(=O)c2ccccc2C1=O)C(=O)NO.[Na+]` (single isomer, unassigned) [Example 5, 5-methyl-3(R)-{1(R)-methylcarbamoyl-2-[4-(3-sulfopropoxy)phenyl]ethylcarbamoyl}-2(R or S)-phthalimidomethylhexanohydroxamic acid sodium salt], for which the “inhibitory effect of compound … relative ratio” value in assay [2] (sodium salt) worked out at 0.80.

For the molecule `CNC(=O)[C@@H](Cc1ccc(OCCCS(=O)(=O)[O-])cc1)NC(=O)[C@@H](CC(C)C)C(CN1C(=O)c2ccccc2C1=O)C(=O)NO.[Na+]` (single isomer, unassigned) [Example 6, 5-methyl-3(S)-{1(R)-methylcarbamoyl-2-[4-(3-sulfopropoxy)phenyl]ethylcarbamoyl}-2(R or S)-phthalimidomethylhexanohydroxamic acid sodium salt], the “inhibitory effect of compound … relative ratio” value in assay [2] (sodium salt) was 0.69.

With `CNC(=O)[C@H](Cc1ccc(OCCCS(=O)(=O)[O-])cc1)NC(=O)[C@@H](CC(C)C)C(CN1C(=O)c2ccccc2C1=O)C(=O)NO.[Na+]` (single isomer, unassigned) [Example 7, 5-methyl-3(S)-{1(S)-methylcarbamoyl-2-[4-(3-sulfopropoxy)phenyl]ethylcarbamoyl}-2(R or S)-phthalimidomethylhexanohydroxamic acid sodium salt], the “inhibitory effect of compound … relative ratio” value in assay [2] (sodium salt) amounted to 0.79.

In the case of `CNC(=O)[C@@H](Cc1ccc(OCCCS(=O)(=O)[O-])cc1)NC(=O)[C@@H](CC(C)C)C(CN1C(=O)c2ccccc2C1=O)C(=O)NO.[Na+]` (single isomer, unassigned) [Example 8, 5-methyl-3(S)-{1(R)-methylcarbamoyl-2-[4-(3-sulfopropoxy)phenyl]ethylcarbamoyl}-2(R or S)-phthalimidomethylhexanohydroxamic acid sodium salt], the “inhibitory effect of compound … relative ratio” value in assay [2] (sodium salt) worked out at 0.60.

Take `CNC(=O)[C@H](Cc1ccc(OCCCS(=O)(=O)[O-])cc1)NC(=O)[C@@H](CC(C)C)C(CN1C(=O)c2ccccc2C1=O)C(=O)NO.[Na+]` (single isomer, unassigned) [Example 9, 5-methyl-3(S)-{1(S)-methylcarbamoyl-2-[4-(3-sulfopropoxy)phenyl]ethylcarbamoyl}-2(R or S)-phthalimidomethylhexanohydroxamic acid sodium salt]: in assay [2] (sodium salt), the “inhibitory effect of compound … relative ratio” value is 0.51.

For the molecule `CNC(=O)[C@H](Cc1ccc(OCCS(=O)(=O)[O-])cc1)NC(=O)[C@H](CC(C)C)C(CN1C(=O)c2ccccc2C1=O)C(=O)NO.[Na+]` (single isomer, unassigned) [Example 10, 5-methyl-3(R)-{1(S)-methylcarbamoyl-2-[4-(2-sulfoethoxy)phenyl]ethylcarbamoyl}-2(R or S)-phthalimidomethylhexanohydroxamic acid sodium salt], the inhibition in vivo at 2.5 mg/kg/h in assay [1] (setting [3]) came to 88.1%; in assay [1] (setting [4]) it was 81.4%. In addition, the “inhibitory effect of compound … relative ratio” value in assay [2] amounted to 0.87.

For `CNC(=O)[C@H](Cc1ccc(OCCCCS(=O)(=O)[O-])cc1)NC(=O)[C@H](CC(C)C)C(CN1C(=O)c2ccccc2C1=O)C(=O)NO.[Na+]` (single isomer, unassigned) [Example 11, 5-methyl-3(R)-{1(S)-methylcarbamoyl-2-[4-(4-sulfobutoxy)phenyl]ethylcarbamoyl}-2(R or S)-phthalimidomethylhexanohydroxamic acid sodium salt], the results for the inhibition in vivo at 2.5 mg/kg/h in assay [1] (setting [3]) and in assay [1] (setting [4]) were 5.5% and 36.2%, respectively. In addition, the “inhibitory effect of compound … relative ratio” value in assay [2] is 0.74.

Consider `CNC(=O)[C@H](Cc1ccc(OCCCCCS(=O)(=O)[O-])cc1)NC(=O)[C@H](CC(C)C)C(CN1C(=O)c2ccccc2C1=O)C(=O)NO.[Na+]` (single isomer, unassigned) [Example 12, 5-methyl-3(R)-{1(S)-methylcarbamoyl-2-[4-(5-sulfopentoxy)phenyl]ethylcarbamoyl}-2(R or S)-phthalimidomethylhexanohydroxamic acid sodium salt], for which the “inhibitory effect of compound … relative ratio” value in assay [2] is on record as 0.85.

Turning to `CNC(=O)[C@H](Cc1ccc(OCCCS(=O)(=O)[O-])cc1)NC(=O)[C@H](CC(C)C)C(Cc1ccc2ccccc2c1)C(=O)NO.[Na+]` (single isomer, unassigned) [Example 13, 5-methyl-3(R)-{1(S)-methylcarbamoyl-2-[4-(3-sulfopropoxy)phenyl]ethylcarbamoyl}-2(R or S)-(2-naphthylmethyl)hexanohydroxamic acid sodium salt], the inhibition in vivo at 2.5 mg/kg/h was determined as 44.7% in assay [1] (setting [3]) and 74.2% in assay [1] (setting [4]). Moreover, in assay [2], the “inhibitory effect of compound … relative ratio” value came to 0.87.

As to `CC(C)C[C@@H](C(=O)N[C@@H](Cc1ccccc1)C(=O)NCS(=O)(=O)[O-])C(Cc1ccc2ccccc2c1)C(=O)NO.[Na+]` (single isomer, unassigned) [Example 25, 5-methyl-2(R or S)-(2-naphthylmethyl)-3(R)-[2-phenyl-1(S)-(sulfomethylcarbamoyl)ethylcarbamoyl]hexanohydroxamic acid sodium salt], the “inhibitory effect of compound … relative ratio” value in assay [2] amounted to 0.33.

With `CC(C)C[C@@H](C(=O)N[C@@H](Cc1ccccc1)C(=O)NCCS(=O)(=O)[O-])C(Cc1ccc2ccccc2c1)C(=O)NO.[Na+]` (single isomer, unassigned) [Example 26, 5-methyl-2(R or S)-(2-naphthylmethyl)-3(R)-[2-phenyl-1(S)-(2-sulfoethylcarbamoyl)ethylcarbamoyl]hexanohydroxamic acid sodium salt], the “inhibitory effect of compound … relative ratio” value in assay [2] turned out to be 0.54.
